In patent US9587266B2, “Mutant luciferases” (University of Massachusetts, priority 2011, dated 2017):
Several values for one entry are separate records, joined by “and”; a condition that tells them apart may be missing. Identical values can stand only once. Like-named read-outs stand apart in the source and are kept apart here.

Tests used:
R218K mutant luciferase = molecular target: T1, R218K mutant luciferase (Photinus pyralis, UniProt P08659, R218K); format: biochemical; details: for Apparent Vmax / Km: R218K luciferase, purified protein; for Km: 3 minutes post-substrate addition, read-out: Apparent Km
T1 construct: The full firefly (Photinus pyralis) luciferase gene was PCR amplified from pGL3 (Promega); GST (N, cleaved yes); made in house; host or cells: E. coli JM109
Description: (§1) The PCR product was cloned into the BamH1 and NotI sites of pGEX6P-1 for bacterial expression. Mutant proteins were created using the Quickchange site-directed mutagenesis kit (Stratagene). Saturating mutagenesis was performed using the used the degenerate codon NNK at sites predicted to impact or alter substrate biding including F247, T251, L286, S347, R337, R218, Q338, Y340, A313, and I351 using the degenerate codon NNK.
(§2) Luminescence assays in 96-well plates were initiated by adding 30 μL 2× substrate in 20 mM Tris pH 7.6, 0.1 mM EDTA, 8 mM MgSO4, 4 mM ATP, and 1 mM TCEP to 30 μL of 20 nM purified luciferase in 20 mM Tris pH 7.6, 0.1 mM EDTA, 1 mM TCEP and 0.4 mg/mL BSA.

S347A mutant luciferase = molecular target: T2, S347A mutant luciferase (Photinus pyralis, UniProt P08659, S347A); format: biochemical; details: purified protein; for Km: 3 minutes post-substrate addition, read-out: Apparent Km
T2 construct: The full firefly (Photinus pyralis) luciferase gene was PCR amplified from pGL3 (Promega); GST (N, cleaved yes); made in house; host or cells: E. coli JM109
Description: as §1, §2

R218K + L342A luciferase = molecular target: T3, R218K + L342A luciferase (Photinus pyralis, UniProt P08659, L342A/R218K); format: biochemical
T3 construct: The full firefly (Photinus pyralis) luciferase gene was PCR amplified from pGL3 (Promega); GST (N, cleaved yes); made in house; host or cells: E. coli JM109
Description: (§3) Purified mutant luciferases were used in bioluminescence emission and burst kinetics scans. Each purified protein in 20 mM Tris pH 7.6, 0.1 mM EDTA, 1 mM TCEP and 0.4 mg/mL BSA was added to 2× substrate in 20 mM Tris pH 7.6, 0.1 mM EDTA, 8 mM MgSO4, 4 mM ATP, and 1 mM TCEP in a cuvette.
(§4) Luciferase was rapidly injected into a cuvette containing substrate, and the emission from 400-800 nm was recorded in a SPEX FluoroMax-3 fluorimeter with closed excitation slits.

WT luciferase [1] = molecular target: T4, WT luciferase (Photinus pyralis, UniProt P08659); format: biochemical; details: for Maximum Emission Wavelength of Selected Substrate: Table 3
T4 construct: The full firefly (Photinus pyralis) luciferase gene was PCR amplified from pGL3 (Promega); GST (N, cleaved yes); made in house; host or cells: E. coli JM109
Description: as §3, §4

T251S mutant luciferase = molecular target: T5, T251S mutant luciferase (Photinus pyralis, UniProt P08659, T251S); assay: Titration assay with purified protein; format: biochemical; details: for Km: 3 minutes post-substrate addition, read-out: Apparent Km
T5 construct: The full firefly (Photinus pyralis) luciferase gene was PCR amplified from pGL3 (Promega); GST (N, cleaved yes); made in house; host or cells: E. coli JM109
Description: as §1, §2

L286M mutant luciferase = molecular target: T6, L286M mutant luciferase (Photinus pyralis, UniProt P08659, L286M); assay: Titration assay with purified protein; format: biochemical; details: for Km: 3 minutes post-substrate addition, read-out: Apparent Km
T6 construct: The full firefly (Photinus pyralis) luciferase gene was PCR amplified from pGL3 (Promega); GST (N, cleaved yes); made in house; host or cells: E. coli JM109
Description: as §1, §2

R218K luciferase = molecular target: T7, R218K luciferase (Photinus pyralis, UniProt P08659, R218K); assay: Bioluminescence emission scan; format: biochemical
T7 construct: The full firefly (Photinus pyralis) luciferase gene was PCR amplified from pGL3 (Promega); GST (N, cleaved yes); made in house; host or cells: E. coli JM109
Description: (§5) Purified mutant luciferases were used in bioluminescence emission and burst kinetics scans.
as §4

L342A luciferase = molecular target: T8, L342A luciferase (Photinus pyralis, UniProt P08659, L342A); assay: Bioluminescence emission scan; format: biochemical
T8 construct: The full firefly (Photinus pyralis) luciferase gene was PCR amplified from pGL3 (Promega); GST (N, cleaved yes); made in house; host or cells: E. coli JM109
Description: as §5, §4

L286M + S347A luciferase = molecular target: T9, L286M + S347A luciferase (Photinus pyralis, UniProt P08659, L286M/S347A); assay: Bioluminescence emission scan; format: biochemical
T9 construct: The full firefly (Photinus pyralis) luciferase gene was PCR amplified from pGL3 (Promega); GST (N, cleaved yes); made in house; host or cells: E. coli JM109
Description: as §5, §4

WT luciferase [2] = molecular target: T4, WT luciferase; assay: Titration assay with purified protein; format: biochemical; details: for Km: 3 minutes post-substrate addition, read-out: Apparent Km
Description: as §1, with “NNK. The point mutants S347A, L286A, A348G, E311A, I351A, A313G, R337A, H245A and L342A were made independently.” for “NNK.”
as §2, with “BSA. Titration assays were performed 3 minutes post-substrate addition in a Turner Veritas luminometer with final substrate concentrations ranging from 0.122-250 μM or 0.244-500 μM.” for “BSA.”

F247V luciferase = molecular target: T10, F247V luciferase (Photinus pyralis, UniProt P08659, F247V); assay: Bioluminescence emission scan; format: biochemical
T10 construct: The full firefly (Photinus pyralis) luciferase gene was PCR amplified from pGL3 (Promega); GST (N, cleaved yes); made in house; host or cells: E. coli JM109
Description: as §5, §4

L286M luciferase = molecular target: T11, L286M luciferase (Photinus pyralis, UniProt P08659, L286M); assay: Bioluminescence emission scan; format: biochemical
T11 construct: The full firefly (Photinus pyralis) luciferase gene was PCR amplified from pGL3 (Promega); GST (N, cleaved yes); made in house; host or cells: E. coli JM109
Description: as §5, §4

[3] = tested on: Nc1ccc2nc(C3=N[C@@H](C(=O)O)CS3)sc2c1; assay: purified protein, by the assay type; details: 3 minutes post-substrate addition, pH 7.6

T2 sequence (P08659 whole entry S347A): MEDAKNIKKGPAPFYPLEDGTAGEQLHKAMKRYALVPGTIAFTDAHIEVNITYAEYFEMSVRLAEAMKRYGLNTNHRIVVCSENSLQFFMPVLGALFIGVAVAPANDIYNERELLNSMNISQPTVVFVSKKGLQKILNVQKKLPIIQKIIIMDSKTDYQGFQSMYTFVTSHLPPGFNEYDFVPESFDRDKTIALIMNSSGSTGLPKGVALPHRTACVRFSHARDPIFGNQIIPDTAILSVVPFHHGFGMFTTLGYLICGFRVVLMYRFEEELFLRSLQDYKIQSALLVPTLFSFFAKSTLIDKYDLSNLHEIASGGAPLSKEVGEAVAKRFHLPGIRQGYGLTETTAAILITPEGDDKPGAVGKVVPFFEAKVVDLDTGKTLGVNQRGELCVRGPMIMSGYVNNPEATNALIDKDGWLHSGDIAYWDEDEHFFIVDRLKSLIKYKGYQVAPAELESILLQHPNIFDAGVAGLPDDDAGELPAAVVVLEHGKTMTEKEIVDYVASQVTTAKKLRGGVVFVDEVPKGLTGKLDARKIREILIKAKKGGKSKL
T6 sequence (P08659 whole entry L286M): as the sequence (P08659 whole entry S347A) above, with L286M, A347S counted along it
T8 sequence (P08659 whole entry L342A): as the sequence (P08659 whole entry S347A) above, with L342A, A347S counted along it
T1 sequence (P08659 whole entry R218K): as the sequence (P08659 whole entry S347A) above, with R218K, A347S counted along it
T7 sequence (P08659 whole entry R218K): as the sequence (P08659 whole entry S347A) above, with R218K, A347S counted along it
T4 sequence (P08659 whole entry): as the sequence (P08659 whole entry S347A) above, with A347S counted along it
T5 sequence (P08659 whole entry T251S): as the sequence (P08659 whole entry S347A) above, with T251S, A347S counted along it
T3 sequence (P08659 whole entry R218K/L342A): as the sequence (P08659 whole entry S347A) above, with R218K, L342A, A347S counted along it
T9 sequence (P08659 whole entry L286M/S347A): as the sequence (P08659 whole entry S347A) above, with L286M counted along it
T10 sequence (P08659 whole entry F247V): as the sequence (P08659 whole entry S347A) above, with F247V, A347S counted along it
T11 sequence (P08659 whole entry L286M): as the sequence (P08659 whole entry S347A) above, with L286M, A347S counted along it

Molecule	Maximum Emission Wavelength of Selected Substrate (R218K + L342A luciferase)	Maximum Emission Wavelength of Selected Substrate (WT luciferase [1])	Maximum Emission Wavelength of Selected Substrate (R218K luciferase)	Maximum Emission Wavelength of Selected Substrate (L342A luciferase)	Maximum Emission Wavelength of Selected Substrate (L286M + S347A luciferase)	further results
CN(C)c1ccc2nc(C3=NC(C(=O)O)CS3)sc2c1 (stereo not shown) [6′-Me2NLH2]	628 nm	619 nm	624 nm	619 nm	608 nm	Apparent Vmax (R218K mutant luciferase): 5 ± 0.1 ×10^−5 cps; Km (R218K mutant luciferase): 0.35 ± 0.04 µM; Apparent Vmax (S347A mutant luciferase): 2.1 ± 0.02 ×10^−5 cps; Km (S347A mutant luciferase): 0.24 ± 0.014 µM; Apparent Vmax (T251S mutant luciferase): 1.6 ± 0.02 ×10^−5 cps; Km (T251S mutant luciferase): 0.3 ± 0.02 µM; Apparent Vmax (L286M mutant luciferase): 1.3 ± 0.01 ×10^−5 cps; Km (L286M mutant luciferase): 0.08 ± 0.005 µM; Apparent Vmax (WT luciferase [2]): 0.5 ± 0.003 ×10^−5 cps; Km (WT luciferase [2]): 0.025 ± 0.003 µM
CNc1ccc2nc(C3=NC(C(=O)O)CS3)sc2c1 (stereo not shown) [6′-MeNHLH2, Monomethylaminoluciferin]	612 nm	608 nm	610 nm	611 nm	599 nm	Apparent Vmax (R218K mutant luciferase): 38 ± 0.5 ×10^−5 cps; Km (R218K mutant luciferase): 0.45 ± 0.04 µM; Apparent Vmax (S347A mutant luciferase): 16 ± 0.2 ×10^−5 cps; Km (S347A mutant luciferase): 0.47 ± 0.03 µM; Apparent Vmax (T251S mutant luciferase): 8 ± 0.1 ×10^−5 cps; Km (T251S mutant luciferase): 0.27 ± 0.02 µM; Apparent Vmax (L286M mutant luciferase): 7 ± 0.05 ×10^−5 cps; Km (L286M mutant luciferase): 0.08 ± 0.005 µM; Apparent Vmax (WT luciferase [2]): 3 ± 0.02 ×10^−5 cps; Km (WT luciferase [2]): 0.06 ± 0.004 µM
CN1CCc2cc3nc(C4=N[C@@H](C(=O)O)CS4)sc3cc21 [CycLuc2]	617 nm	609 nm	621 nm	611 nm	608 nm	Apparent Vmax (R218K mutant luciferase): 26 ± 0.3 ×10^−5 cps; Km (R218K mutant luciferase): 0.3 µM and 0.27 µM; improvement in the maximal sustained emission (R218K mutant luciferase; R218K mutant relative to wild-type luciferase): 20 fold; Apparent Vmax (S347A mutant luciferase): 7.6 ± 0.05 ×10^−5 cps; Km (S347A mutant luciferase): 0.11 ± 0.005 µM; Apparent Vmax (T251S mutant luciferase): 4.8 ± 0.1 ×10^−5 cps; Km (T251S mutant luciferase): 0.13 ± 0.02 µM; Apparent Vmax (L286M mutant luciferase): 2.3 ± 0.02 ×10^−5 cps; Km (L286M mutant luciferase): 0.1 ± 0.01 µM; Maximum Emission Wavelength of Selected Substrate (R218K luciferase; listed as Cyc2): 619 nm; Apparent Vmax (WT luciferase [2]): 1.3 ± 0.02 ×10^−5 cps
O=C(O)C1CSC(c2nc3cc4c(cc3s2)NCCO4)=N1 (stereo not shown) [CycLuc3, 2-(7,8-Dihydro-6H-5-oxa-1-thia-3,8-diaza-cyclopenta[b]naphthalen-2-yl)-4,5-dihydro-thiazole-4-carboxylic acid]	606 nm	599 nm	605 nm	599 nm	590 nm	Wavelength at Max. Emission (WT luciferase [1]; Table 2): 594 nm; Wavelength at Max. Emission (F247V luciferase): 599 nm; Wavelength at Max. Emission (L286M luciferase): 592 nm
CN1CCOc2cc3nc(C4=NC(C(=O)O)CS4)sc3cc21 (stereo not shown) [CycLuc4, 2-(8-Methyl-7,8-dihydro-6H-5-oxa-1-thia-3,8-diaza-cyclopenta[b]naphthalen-2-yl)-4,5-dihydro-thiazole-4-carboxylic acid]	616 nm	607 nm	617 nm	608 nm	602 nm	–
CC1=CC(C)(C)Nc2cc3sc(C4=NC(C(=O)O)CS4)nc3cc21 (stereo not shown) [CycLuc5, 2-(6,6,8-Trimethyl-5,6-dihydro-thiazolo[4,5-g]quinolin-2-yl)-4,5-dihydro-thiazole-4-carboxylic acid]	633 nm	637 nm	635 nm	631 nm	631 nm	–
CC1=CC(C)(C)N(C)c2cc3sc(C4=NC(C(=O)O)CS4)nc3cc21 (stereo not shown) [CycLuc6, 2-(5,6,6,8-Tetramethyl-5,6-dihydro-thiazolo[4,5-g]quinolin-2-yl)-4,5-dihydro-thiazole-4-carboxylic acid]	635 nm	636 nm	637 nm	639 nm	628 nm	–
O=C(O)C1CSC(c2nc3cc4c(cc3s2)NCCC4)=N1 (stereo not shown) [CycLuc7, 2-(5,6,7,8-Tetrahydro-thiazolo[4,5-g]quinolin-2-yl)-4,5-dihydro-thiazole-4-carboxylic acid]	616 nm	607 nm	620 nm	611 nm	604 nm	–
CN1CCCc2cc3nc(C4=NC(C(=O)O)CS4)sc3cc21 (stereo not shown) [CycLuc8, 2-(5-Methyl-5,6,7,8-tetrahydro-thiazolo[4,5-g]quinolin-2-yl)-4,5-dihydro-thiazole-4-carboxylic acid]	628 nm	610 nm	632 nm	614 nm	605 nm	–
CCCO [Propanol]	609 nm	608 nm	609 nm	607 nm	593 nm	–
L286M mutant luciferase (Photinus pyralis; L286M)	–	–	–	–	–	Km ([3]; other: L286M luciferase): 4.35 ± 0.2 µM
R218K mutant luciferase (Photinus pyralis; R218K)	–	–	–	–	–	Km ([3]; other: R218K luciferase): 15.2 ± 1.1 µM
S347A mutant luciferase (Photinus pyralis; S347A)	–	–	–	–	–	Km ([3]; other: S347A luciferase): 31.0 ± 0.4 µM
T251S mutant luciferase (Photinus pyralis; T251S)	–	–	–	–	–	Km ([3]; other: T251S luciferase): 17.3 ± 0.3 µM
